Results taken from patent US20170253607A1, “LONG-ACTING HIV PROTEASE INHIBITOR” (Shionogi & Co., Ltd., priority 2014, published 2017).

Legend:
[1] = Evaluation of total body clearance (CLtot), intravenous administration; type: in vivo, Sprague-Dawley (SD); conditions: rat (SD), intravenous administration 0.5-10 mg/kg; CLtot = dose/AUC
Description: Dose: Intravenous administration with designated doses was selected. (Doses were changed depending on compounds.) • 0.5-10 mg/kg (n=2-3) Preparation of dosing formulation: The dosing solution was prepared by dissolving in an adequate solvent. Administration method: The dosing solution was injected into the tail vein by a syringe with a needle Blood sampling: The blood was collected at the scheduled time and obtained the plasma. Plasma concentrations of the compound were measured by LC/MS/MS. Statistical analysis: Area under the plasma concentration-time curve (AUC) of the compound was calculated by pharmacokinetic analysis software, WinNonlin™ and CLtot was calculated by dividing the dose by AUC.

[2] = molecular target: HIV-1 PR (Human immunodeficiency virus type 1 group M subtype B, UniProt P04585); assay: HIV-protease inhibitory activity assay (FRET peptide substrate); type: biochemical; conditions: Test Example 1
Method in brief: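 HIV-1 PR (0.83 ng) preincubated with compounds 20 min at room temperature in 0.1 mol/L NaAc, 0.5 mol/L NaCl, 1 mmol/L EDTA, 1 mmol/L DTT, 0.05% Tween 20, pH 4.8. Cleavage of HiLyte Fluor 488/QXL 520 FRET peptide (2 μmol/L) read after 60 minutes at 485/535 nm; IC50 from four-parameter logistic fit.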

**Q.** With COc1ccc(S(=O)(=O)N(CC(C)C)CC(O)C(Cc2ccc(NCC3CCCC3c3sc4c(c3C(=O)O)CC(C)(C)CC4)cc2)NC(=O)OC2COC3(C)OCCC23)cc1 (centres unmarked) [Compound I-410] as the compound, how does the rat_CLt [1] read?
**A.** 1.07 mL/min/kg

**Q.** What about the IC50 [2] of the same compound?
**A.** 1.99 nM

**Q.** Which results are given for COc1ccc(S(=O)(=O)N(CC(C)C)CC(O)C(Cc2ccc(NCc3cccc(C(=O)Nc4sc5c(c4C(=O)O)CC(C)(C)CC5)c3)cc2)NC(=O)OC2COC3(C)OCCC23)cc1 (centres unmarked) [Compound I-436]?
**A.** rat_CLt [1]: 1.72 mL/min/kg; IC50 [2]: 3.17 nM

**Q.** What does the source list for COc1ccc(S(=O)(=O)N(CC(C)C)CC(O)C(Cc2ccc(NCc3ccc4scc(C(=O)Nc5sc6c(c5C(=O)O)CC(C)(C)CC6)c4c3)cc2)NC(=O)OC2COC3(C)OCCC23)cc1 (centres unmarked) [Compound I-440]?
**A.** rat_CLt [1]: 0.871 mL/min/kg; IC50 [2]: 4.5 nM

**Q.** What does the source list for COc1ccc(S(=O)(=O)N(CC(C)C)CC(O)C(Cc2ccc(N(C)Cc3cc(-c4sc5c(c4C(=O)O)CC(C)(C)CC5)co3)cc2)NC(=O)OC2COC3(C)OCCC23)cc1 (centres unmarked) [Compound I-448]?
**A.** rat_CLt [1]: 5.28 mL/min/kg; IC50 [2]: 2.31 nM

**Q.** For COc1ccc(S(=O)(=O)N(CC(C)C)CC(O)C(Cc2ccc(N(C)Cc3ccc(-c4sc5c(c4C(=O)O)CC(C)(C)CC5)cn3)cc2)NC(=O)OC2COC3(C)OCCC23)cc1 (centres unmarked) [Compound I-449], which rat_CLt [1] is on record?
**A.** 11.1 mL/min/kg

**Q.** And the IC50 [2]?
**A.** 2.19 nM

**Q.** For COc1ccc(S(=O)(=O)N(CC(C)C)CC(O)C(Cc2ccc(N(C)Cc3ccc(-c4sc5c(c4C(=O)O)CC(C)(C)CC5)cc3)cc2)NC(=O)OC2COC3(C)OCCC23)cc1 (centres unmarked) [Compound I-450], which rat_CLt [1] is on record?
**A.** 3.7 mL/min/kg

**Q.** What about the IC50 [2] of the same compound?
**A.** 2.68 nM

**Q.** Which results are given for COc1ccc(S(=O)(=O)N(CC(C)C)CC(O)C(Cc2ccc(N(C)Cc3cc(C(F)(F)F)ccc3-c3sc4c(c3C(=O)O)CC(C)(C)CC4)cc2)NC(=O)OC2COC3(C)OCCC23)cc1 (centres unmarked) [Compound I-451]?
**A.** rat_CLt [1]: 0.211 mL/min/kg; IC50 [2]: 9.46 nM

**Q.** For COc1ccc(S(=O)(=O)N(CC(C)C)CC(O)C(Cc2ccc(NCc3cc4ccccc4c(-c4sc5c(c4C(=O)O)CC(C)(C)CC5)n3)cc2)NC(=O)OC2COC3(C)OCCC23)cc1 (centres unmarked) [Compound I-453], which rat_CLt [1] is on record?
**A.** 0.593 mL/min/kg

**Q.** And the IC50 [2]?
**A.** 2.63 nM

**Q.** For COc1ccc(S(=O)(=O)N(CC(C)C)CC(O)C(Cc2ccc(NCc3ccccc3-c3sc(N(C4CCCCC4)C4CCCCC4)nc3C(=O)O)cc2)NC(=O)OC2COC3(C)OCCC23)cc1 (centres unmarked) [Compound I-454], which rat_CLt [1] is on record?
**A.** 4.02 mL/min/kg

**Q.** And the IC50 [2]?
**A.** 5.51 nM

**Q.** Which rat_CLt [1] does the source give for COc1ccc(S(=O)(=O)N(CC(C)C)CC(O)C(Cc2ccc(NCc3cc(N(C)C)ccc3-c3sc4c(c3C(=O)O)CC(C)(C)CC4)cc2)NC(=O)OC2COC3(C)OCCC23)cc1 (centres unmarked) [Compound I-455] here?
**A.** 0.236 mL/min/kg

**Q.** What about the IC50 [2] of the same compound?
**A.** 2.38 nM

**Q.** Which rat_CLt [1] does the source give for CC(C)CN(CC(O)C(Cc1ccc(NCc2ccccc2-c2sc3c(c2C(=O)O)CC(C)(C)CC3)cc1)NC(=O)OC1COC2(C)OCCC12)S(=O)(=O)c1ccc2c(c1)OCO2 (centres unmarked) [Compound I-465] here?
**A.** 0.675 mL/min/kg

**Q.** What about the IC50 [2] of the same compound?
**A.** 2.97 nM

**Q.** Which rat_CLt [1] does the source give for COc1ccc(S(=O)(=O)N(CC(C)C)CC(O)C(Cc2ccc(N(C)Cc3ccccc3-n3nc4c(c3C(=O)O)CC3(CCCC3)CC4)cc2)NC(=O)OC2COC3(C)OCCC23)cc1 (centres unmarked) [Compound I-466] here?
**A.** 1.75 mL/min/kg

**Q.** What about the IC50 [2] of the same compound?
**A.** 4.28 nM

**Q.** What does the source list for CC(C)CN(CC(O)C(Cc1ccc(NCc2ccccc2-c2sc3c(c2C(=O)O)CC(C)(C)CC3)cc1)NC(=O)OC1COC2(C)OCCC12)S(=O)(=O)c1ccc2ncsc2c1 (centres unmarked) [Compound I-467]?
**A.** rat_CLt [1]: 2.36 mL/min/kg; IC50 [2]: 2.42 nM

**Q.** Which rat_CLt [1] does the source give for COc1ccc(S(=O)(=O)N(CC(C)C)CC(O)C(Cc2ccc(N(C)Cc3ccccc3-c3sc(N(C4CCCCC4)C4CCCCC4)nc3C(=O)O)cc2)NC(=O)OC2COC3(C)OCCC23)cc1 (centres unmarked) [Compound I-471] here?
**A.** 2.17 mL/min/kg

**Q.** And the IC50 [2]?
**A.** 4.69 nM

**Q.** With COc1ccc(S(=O)(=O)N(CC(O)C(Cc2ccc(NCc3ccccc3-c3sc4c(c3C(=O)O)CC(C)(C)CC4)cc2)NC(=O)OC2COC3(C)OCCC23)CC(C)(C)C)cc1 (centres unmarked) [Compound I-473] as the compound, how does the rat_CLt [1] read?
**A.** 1.22 mL/min/kg

**Q.** What about the IC50 [2] of the same compound?
**A.** 2.71 nM

**Q.** Which rat_CLt [1] does the source give for COc1ccc(S(=O)(=O)N(CC2CCC2)CC(O)C(Cc2ccc(NCc3ccccc3-c3sc4c(c3C(=O)O)CC(C)(C)CC4)cc2)NC(=O)OC2COC3(C)OCCC23)cc1 (centres unmarked) [Compound I-474] here?
**A.** 1.28 mL/min/kg

**Q.** What about the IC50 [2] of the same compound?
**A.** 2.14 nM

**Q.** Which rat_CLt [1] does the source give for COc1ccc(S(=O)(=O)N(CCC(C)C)CC(O)C(Cc2ccc(NCc3ccccc3-c3sc4c(c3C(=O)O)CC(C)(C)CC4)cc2)NC(=O)OC2COC3(C)OCCC23)cc1 (centres unmarked) [Compound I-475] here?
**A.** 2.28 mL/min/kg

**Q.** And the IC50 [2]?
**A.** 2.42 nM

**Q.** With COc1ccc(S(=O)(=O)N(CC(C)C)CC(O)C(Cc2ccc(NCc3cc(N4CCCC4)ccc3-c3sc4c(c3C(=O)O)CC(C)(C)CC4)cc2)NC(=O)OC2COC3(C)OCCC23)cc1 (centres unmarked) [Compound I-480] as the compound, how does the rat_CLt [1] read?
**A.** 0.0997 mL/min/kg

**Q.** What about the IC50 [2] of the same compound?
**A.** 2.36 nM

**Q.** For COc1ccc(S(=O)(=O)N(CC(C)C)CC(O)C(Cc2ccc(NCc3ccc(C(=O)NCc4ccc(F)cc4)cc3-c3sc4c(c3C(=O)O)CC(C)(C)CC4)cc2)NC(=O)OC2COC3(C)OCCC23)cc1 (centres unmarked) [Compound I-481], which rat_CLt [1] is on record?
**A.** 3.29 mL/min/kg

**Q.** What about the IC50 [2] of the same compound?
**A.** 3.72 nM

**Q.** Which rat_CLt [1] does the source give for COc1ccc(S(=O)(=O)N(CC2CCCC2)CC(O)C(Cc2ccc(NCc3ccccc3-c3sc4c(c3C(=O)O)CC(C)(C)CC4)cc2)NC(=O)OC2COC3(C)OCCC23)cc1 (centres unmarked) [Compound I-483] here?
**A.** 2.41 mL/min/kg

**Q.** And the IC50 [2]?
**A.** 2.75 nM

**Q.** What does the source list for CC1(C)CCc2sc(-c3ccccc3CNc3ccc(CC(NC(=O)OC4COC5(C)OCCC45)C(O)CN(CC4CCCC4)S(=O)(=O)c4ccc5c(c4)OCO5)cc3)c(C(=O)O)c2C1 (centres unmarked) [Compound I-484]?
**A.** rat_CLt [1]: 1.58 mL/min/kg; IC50 [2]: 2.43 nM

**Q.** For COc1ccc(S(=O)(=O)N(CC(C)C)CC(O)C(Cc2ccc(NCc3cccc(C(F)(F)F)c3-c3sc4c(c3C(=O)O)CC(C)(C)CC4)cc2)NC(=O)OC2COC3(C)OCCC23)cc1 (centres unmarked) [Compound I-485], which rat_CLt [1] is on record?
**A.** 0.45 mL/min/kg

**Q.** What about the IC50 [2] of the same compound?
**A.** 2.28 nM

**Q.** Which results are given for COc1ccc(S(=O)(=O)N(CC(C)C)CC(O)C(Cc2ccc(NCc3ccc4nc(-c5sc6c(c5C(=O)O)CC(C)(C)CC6)sc4c3)cc2)NC(=O)OC2COC3(C)OCCC23)cc1 (centres unmarked) [Compound I-487]?
**A.** rat_CLt [1]: 3.16 mL/min/kg; IC50 [2]: 3.03 nM

**Q.** Which rat_CLt [1] does the source give for COc1ccc(S(=O)(=O)N(CC(C)C)CC(O)C(Cc2ccc(N(C)Cc3ccc(C)cc3-c3sc4c(c3C(=O)O)CC(C)(C)CC4)cc2)NC(=O)OC2COC3(C)OCCC23)cc1 (centres unmarked) [Compound I-488] here?
**A.** 0.501 mL/min/kg

**Q.** What about the IC50 [2] of the same compound?
**A.** 2.2 nM

**Q.** For COc1ccc(S(=O)(=O)N(CC(C)C)CC(O)C(Cc2ccc(N(C)Cc3ccc(OC)cc3-c3sc4c(c3C(=O)O)CC(C)(C)CC4)cc2)NC(=O)OC2COC3(C)OCCC23)cc1 (centres unmarked) [Compound I-490], which rat_CLt [1] is on record?
**A.** 0.88 mL/min/kg

**Q.** And the IC50 [2]?
**A.** 2.01 nM

**Q.** With COc1ccc(S(=O)(=O)N(CC(C)C)CC(O)C(Cc2ccc(N(C)Cc3ccc(F)cc3-c3sc4c(c3C(=O)O)CC(C)(C)CC4)cc2)NC(=O)OC2COC3(C)OCCC23)cc1 (centres unmarked) [Compound I-491] as the compound, how does the rat_CLt [1] read?
**A.** 3.32 mL/min/kg

**Q.** And the IC50 [2]?
**A.** 1.92 nM

**Q.** With COc1ccc(S(=O)(=O)N(CC(C)C)CC(O)C(Cc2ccc(N(C)Cc3occc3-c3sc4c(c3C(=O)O)CC(C)(C)CC4)cc2)NC(=O)OC2COC3(C)OCCC23)cc1 (centres unmarked) [Compound I-492] as the compound, how does the rat_CLt [1] read?
**A.** 17.3 mL/min/kg

**Q.** And the IC50 [2]?
**A.** 1.84 nM

**Q.** For CC(C)CN(CC(O)C(Cc1ccc(NCc2ccccc2-c2sc3c(c2C(=O)O)CC(C)(C)CC3)cc1)NC(=O)OC1COC2(C)OCCC12)S(=O)(=O)c1ccc(OCF)cc1 (centres unmarked) [Compound I-507], which rat_CLt [1] is on record?
**A.** 1.61 mL/min/kg

**Q.** What about the IC50 [2] of the same compound?
**A.** 1.85 nM
